Measurements as given in US9980943B2, “Methods of treating muscular dystrophy” (BOARD OF REGENTS OF THE NEVADA SYSTEM OF HIGHER EDUCATION, …, priority 2013, dated 2018).

Key:
Format in all cases: cell-based, mouse
[1] = tested on: β-galactosidase in CMV-LacZ C2C12 myotubes; test: CMV-LacZ secondary screen in C2C12 myotubes (β-Gal stabilizing assay); details: for CMV-LACZ in Myotubes, signal relative to DMSO: C2C12 CMV-LacZ myotubes, fold relative to DMSO; for CMV-LACZ in Myotubes (β-galactosidase activity relative to DMSO): CMV-LacZ C2C12 myotubes, 96-well format
Summary of the method: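 β-Gal level was the read-out, measured in a clonal C2C12 line expressing LacZ from a CMV promoter. Dose-response curves used six concentrations, 0.5 μM up to 40 μM, with duplicate points.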

[2] = tested on: α7 integrin (LacZ reporter in α7+/LacZ myotubes); test: Myotube α7 integrin FDG assay (Burkin assay in myotubes, 96-well); details: myotubes
[3] = tested on: α7 integrin (LacZ reporter in α7βgal+/− myoblasts); test: Myoblast α7+/LacZ integrin FDG assay (Burkin assay in myoblasts, 96-well); details: α7+/LacZ myoblasts, 96-well

| Structure (SMILES) | CMV-LACZ in Myotubes, signal relative to DMSO ([1]; 5 uM) | CMV-LACZ in Myotubes, signal relative to DMSO ([1]; 10 uM) | CMV-LACZ in Myotubes, signal relative to DMSO ([1]; 20 uM) | CMV-LACZ in Myotubes, signal relative to DMSO ([1]; 40 uM) | Burkin Assay in Myotubes (signal relative to DMSO) ([2]; 0.5 uM) | Burkin Assay in Myotubes (signal relative to DMSO) ([2]; 1 uM) | Burkin Assay in Myotubes (signal relative to DMSO) ([2]; 5 uM) | Burkin Assay in Myotubes (signal relative to DMSO) ([2]; 10 uM) | Burkin Assay in Myotubes (signal relative to DMSO) ([2]; 20 uM) | Burkin Assay in Myotubes (signal relative to DMSO) ([2]; 40 uM) | Burkin Assay in Myoblasts, value relative to DMSO ([3]; 0.5 uM) | Burkin Assay in Myoblasts, value relative to DMSO ([3]; 1 uM) | Burkin Assay in Myoblasts, value relative to DMSO ([3]; 5 uM) | Burkin Assay in Myoblasts, value relative to DMSO ([3]; 10 uM) | Burkin Assay in Myoblasts, value relative to DMSO ([3]; 20 uM) | Burkin Assay in Myoblasts, value relative to DMSO ([3]; 40 uM) | CMV-LACZ in Myotubes (β-galactosidase activity relative to DMSO) ([1]; 5 uM) | CMV-LACZ in Myotubes (β-galactosidase activity relative to DMSO) ([1]; 10 uM) | CMV-LACZ in Myotubes (β-galactosidase activity relative to DMSO) ([1]; 20 uM) | CMV-LACZ in Myotubes (β-galactosidase activity relative to DMSO) ([1]; 40 uM) | also measured |
| --- | --- | --- | --- | --- | --- | --- | --- | --- | --- | --- | --- | --- | --- | --- | --- | --- | --- | --- | --- | --- | --- |
| COC(=O)C(=O)C/C(=N/Nc1ncnc2ccccc12)c1ccc(Cl)cc1 [MLS001174719-01] | 0.8551 | 0.832 | 0.9254 | 1.108 | 1.135 | 1.001 | 1.128 | 1.034 | 0.9771 | 0.7374 | 1.053 | 1.048 | 1.013 | 0.848 | 0.7524 | 0.5265 |  |  |  |  |  |
| COc1ccccc1CNS(=O)(=O)c1ccc(Cl)s1 [MLS001175449-01] | 0.8534 | 0.9034 | 0.889 | 0.8671 | 1.1188 | 1.016 | 1.156 | 0.9366 | 1.151 | 0.8041 | 1.0562 | 1.036 | 1.045 | 0.9949 | 1.066 | 0.7564 |  |  |  |  |  |
| CS(=O)(=O)Cc1cccc(C(=O)NN(c2ccccc2)c2ccccc2)c1 [MLS001175473-01] |  |  |  |  | 0.9556 | 0.9177 | 0.8872 | 0.9977 | 1.041 | 0.7971 | 0.5331 | 0.3721 | 0.8732 | 0.8715 | 0.899 | 0.8698 | 0.8962 | 0.8587 | 0.9592 | 1.066 |  |
| C/C(=N\Nc1nncc2ccccc12)c1cccc(OC(F)F)c1 [MLS001175556-01] |  |  |  |  | 0.949 | 1.028 | 1.1 | 0.9013 | 0.901 | 0.7514 | 0.92 | 0.8625 | 0.9202 | 0.8856 | 0.8956 | 0.8018 | 1.113 | 1.053 | 0.9158 | 1.103 |  |
| Cc1ccc(NC(=O)NCc2nc3ccccc3n2C)cc1 [MLS001175592-01] | 0.947 | 1.031 | 0.9649 | 1.018 | 0.9685 | 0.986 | 0.6911 | 1.034 | 0.6445 | 1.047 | 0.8989 | 0.8859 | 0.9323 | 0.9006 | 0.9731 | 0.9405 |  |  |  |  |  |
| CN(C)S(=O)(=O)c1cccc(C(=O)Nc2ccc3c(c2)CCC3)c1 [MLS001176611-01] |  |  |  |  | 0.9506 | 0.6671 | 1.066 | 0.9301 | 0.9665 | 0.9846 | 1.049 | 0.994 | 1.097 | 1.072 | 0.8398 | 0.9134 | 0.9287 | 1.235 | 1.034 | 0.785 |  |
| CC(=O)Nc1ccc(NC(=O)[C@@H](NC(=O)c2cccc(C)c2)C(C)C)cc1 [MLS001176897-01] |  |  |  |  | 0.9577 | 1.073 | 1.022 | 1.194 | 1.145 | 1.163 | 0.9342 | 0.9456 | 0.9058 | 0.9978 | 0.9458 | 0.9475 | 1.009 | 0.797 | 1.121 | 1.046 |  |
| COc1ccccc1OCC(=O)Nc1cc2c(cc1C(=O)O)OCCCO2 [MLS001177045-01] |  |  |  |  | 1.047 | 0.8145 | 1.024 | 1.0851 | 1.11 | 0.9678 | 0.8463 | 1.032 | 1.0025 | 1.0259 | 1.031 | 0.9569 | 0.9238 | 1.11 | 1.058 | 1.118 |  |
| CCCCNC(=O)CSc1nnc(Cc2ccc(Cl)c(Cl)c2)c(=O)[nH]1 [MLS001177259-01] | 0.9462 | 0.7316 | 0.8543 | 1.1 |  |  |  |  |  |  |  |  |  |  |  |  |  |  |  |  | Burkin Assay in Myotubes, α7 integrin LacZ reporter signal relative to DMSO ([2]; 0.5 uM): 0.948; Burkin Assay in Myotubes, α7 integrin LacZ reporter signal relative to DMSO ([2]; 1 uM): 1.053; Burkin Assay in Myotubes, α7 integrin LacZ reporter signal relative to DMSO ([2]; 5 uM): 0.9988; Burkin Assay in Myotubes, α7 integrin LacZ reporter signal relative to DMSO ([2]; 10 uM): 1.044; Burkin Assay in Myotubes, α7 integrin LacZ reporter signal relative to DMSO ([2]; 20 uM): 0.8187; Burkin Assay in Myotubes, α7 integrin LacZ reporter signal relative to DMSO ([2]; 40 uM): 0.9237; Burkin Assay in Myoblasts, signal relative to DMSO ([3]; 0.5 uM): 0.9606; Burkin Assay in Myoblasts, signal relative to DMSO ([3]; 1 uM): 0.9896; Burkin Assay in Myoblasts, signal relative to DMSO ([3]; 5 uM): 0.9735; Burkin Assay in Myoblasts, signal relative to DMSO ([3]; 10 uM): 0.9165; Burkin Assay in Myoblasts, signal relative to DMSO ([3]; 20 uM): 0.7694; Burkin Assay in Myoblasts, signal relative to DMSO ([3]; 40 uM): 0.7773 |
| CS(=O)(=O)c1ccc(Cl)c(NC(=O)CSc2nncn2-c2ccccc2)c1 [MLS001177364-01] | 1.262 | 0.9578 | 1.053 | 0.9743 |  |  |  |  |  |  |  |  |  |  |  |  |  |  |  |  | Burkin Assay in Myotubes, α7 integrin LacZ reporter signal relative to DMSO ([2]; 0.5 uM): 1.036; Burkin Assay in Myotubes, α7 integrin LacZ reporter signal relative to DMSO ([2]; 1 uM): 0.9519; Burkin Assay in Myotubes, α7 integrin LacZ reporter signal relative to DMSO ([2]; 5 uM): 1.235; Burkin Assay in Myotubes, α7 integrin LacZ reporter signal relative to DMSO ([2]; 10 uM): 1.213; Burkin Assay in Myotubes, α7 integrin LacZ reporter signal relative to DMSO ([2]; 20 uM): 1.125; Burkin Assay in Myotubes, α7 integrin LacZ reporter signal relative to DMSO ([2]; 40 uM): 0.6717; Burkin Assay in Myoblasts, signal relative to DMSO ([3]; 0.5 uM): 1.082; Burkin Assay in Myoblasts, signal relative to DMSO ([3]; 1 uM): 0.9869; Burkin Assay in Myoblasts, signal relative to DMSO ([3]; 5 uM): 0.9655; Burkin Assay in Myoblasts, signal relative to DMSO ([3]; 10 uM): 0.9015; Burkin Assay in Myoblasts, signal relative to DMSO ([3]; 20 uM): 1.005; Burkin Assay in Myoblasts, signal relative to DMSO ([3]; 40 uM): 0.8386 |
